What was measured:
[1] = system: PAH model (monocrotaline, Wistar rats); conditions: literature: Schermuly et al., Amer. J. Resp. Crit. Care Med. 2004, 169, 39; cited from earlier work
[2] = system: PAH model in rats receiving an injection of monocrotaline; experiment: Long-term efficacy of fasidotril in the monocrotaline PAH model in rats; format: in vivo, rats of the Wistar type
Method: The long-term efficacy of fasidotril was studied on a recognised PAH model in rats receiving an injection of the toxic alkaloid, monocrotaline (Rosenberg and Rabinovitch, Am. J. Physiol., 1988, 255, 484). After a single injection of the toxin (60 mg/kg, s.c.), the pulmonary arterial endothelium is wounded and the animals develop pulmonary arterial smooth muscle hypertrophy with severe pulmonary hypertension and right ventricular hypertrophy.
A group of 50 rats of the Wistar type weighing approximately 300 g was used, of which 10 were used as controls while 40 received a dose of 60 mg/kg of monocrotaline s.c. The latter were divided into two groups of 20 animals: the first group was fed with a standard laboratory feed while the second group was fed with a feed containing fasidotril at a concentration such that the rats received a dose of approximately 200 mg/kg/day.

SMILES | activity in the PAH model [1] | slowing down of the rate of development of the disease ([2]; PAH model, treatment with fasidotril, conclusion from mortality and heart weight data) | mortality ([2]; after one month, monocrotaline 60 mg/kg s.c., fasidotril in feed approximately 200 mg/kg/day, "monocrotaline only" group 45%) | increase in the weight of the right ventricle (right heart hypertrophy) ([2]; after one month, monocrotaline 60 mg/kg s.c., fasidotril in feed approximately 200 mg/kg/day, monocrotaline only +74%) | increase in the weight of the right auricle (right heart hypertrophy) ([2]; after one month, monocrotaline 60 mg/kg s.c., fasidotril in feed approximately 200 mg/kg/day, monocrotaline only +140%)
CCCc1nn(C)c2c(=O)[nH]c(-c3cc(S(=O)(=O)N4CCN(C)CC4)ccc3OCC)nc12 [sildenafil] | active | – | – | – | –
CC(=O)SC[C@@H](Cc1ccc2c(c1)OCO2)C(=O)N[C@@H](C)C(=O)OCc1ccccc1 [fasidotril, benzyl (S,S)-2-(2-acetylsulphanylmethyl-3-benzo[1,3]dioxol-5-ylpropionylamino)propionate] | – | approximately a half | 20% | +50% | +57%

— patent US20100234393A1, “USE OF A VASOPEPTIDASE INHIBITOR FOR THE TREATMENT OF PULMONARY ARTERIAL HYPERTENSION” (priority 2006, published 2010)
